# Reference: patent US6362188B1, “Farnesyl protein transferase inhibitors” (Schering Corporation, priority 1998, dated 2002)
# Test system: not given
# Assay: not given
# Settings: not given
row,SMILES,melting point [°C]
1,"Cc1ncn(CC2CCCN(C(=O)C3CN(C4c5ccc(Cl)cc5CCc5cccnc54)CCN3C(=O)OC3CCCCC3)C2)c1C (single isomer, unassigned) [47(H)]",106 to 125
2,"Cc1nccn1CC1CCCN(C(=O)C2CN(C3c4ccc(Cl)cc4CCc4cccnc43)CCN2C(=O)OC(C)C)C1 (single isomer, unassigned) [Example 39]",111 to 125
3,"Cc1nccn1CC1CCCN(C(=O)C2CN(C3c4ccc(Cl)cc4CCc4cccnc43)CCN2C(=O)OC(C)C)C1 (single isomer, unassigned) [Example 40]",107 to 112
4,"Cc1nccn1CC1CCCN(C(=O)C2CN(C3c4ccc(Cl)cc4CCc4cccnc43)CCN2C(=O)OC(C)C)C1 (single isomer, unassigned) [Example 41]",95 to 100
5,"Cc1nccn1CC1CCCN(C(=O)C2CN(C3c4ccc(Cl)cc4CCc4cccnc43)CCN2C(=O)OC2CCCCC2)C1 (single isomer, unassigned) [Example 45]",108 to 123
6,"Cc1nccn1CC1CCCN(C(=O)C2CN(C3c4ccc(Cl)cc4CCc4cccnc43)CCN2C(=O)OC2CCCCC2)C1 (single isomer, unassigned) [Example 46]",91 to 94
7,"Cc1nccn1CC1CCCN(C(=O)C2CN(C3c4ccc(Cl)cc4CCc4cccnc43)CCN2C(=O)OC2CCCCC2)C1 (single isomer, unassigned) [Example 47]",100 to 106
8,"Cc1cn(CC2CCCN(C(=O)C3CN(C4c5ccccc5CCc5cc(Cl)cnc54)CCN3C(=O)OC(C)(C)C)C2)cn1 (single isomer, unassigned) [Example 293]",110 to 123
9,CCc1cn(CC2CCCN(C(=O)C3CN(C4c5ccc(Cl)cc5CCc5cccnc54)CCN3C(=O)OC(C)(C)C)C2)cn1 (centres unmarked) [35(C)],104 to 106
10,CCc1cn(CC2CCCN(C(=O)C3CN(C4c5ccc(Cl)cc5CCc5cccnc54)CCN3C(=O)OC(C)(C)C)C2)cn1 (centres unmarked) [35(D)],79 to 81
11,Cc1cn(CC2CCCN(C(=O)C3CN(C4c5ccc(Cl)cc5CCc5cccnc54)CCN3C(=O)OC(C)C)C2)cn1 (centres unmarked) [41(A)],117 to 120
12,Cc1cn(CC2CCCN(C(=O)C3CN(C4c5ccc(Cl)cc5CCc5cccnc54)CCN3C(=O)OC(C)C)C2)cn1 (centres unmarked) [41(B)],101 to 120
13,Cc1cn(CC2CCCN(C(=O)C3CN(C4c5ccc(Cl)cc5CCc5cccnc54)CCN3C(=O)OC3CCCCC3)C2)cn1 (centres unmarked) [47(A)],122 to 127
14,Cc1cn(CC2CCCN(C(=O)C3CN(C4c5ccc(Cl)cc5CCc5cccnc54)CCN3C(=O)OC3CCCCC3)C2)cn1 (centres unmarked) [47(B)],133 to 139

# Test system: Human tumor cells
# Assay: Soft Agar Assay (anchorage-independent growth)
# Format: cell-based
# Settings: colony outgrowth in soft agar, stated as a range for the group
# Procedure: Anchorage-independent growth is a characteristic of tumorigenic cell lines. Human tumor cells can be suspended in growth medium containing 0.3% agarose and an indicated concentration of a farnesyl transferase inhibitor. The solution can be overlayed onto growth medium solidified with 0.6% agarose containing the same concentration of farnesyl transferase inhibitor as the top layer. After the top layer is solidified, plates can be incubated for 10-16 days at 37° C. under 5% CO2 to allow colony outgrowth. After incubation, the colonies can be stained by overlaying the agar with a solution of MTT (3-[4,5-dimethyl-thiazol-2-yl]-2,5-diphenyltetrazolium bromide, Thiazolyl blue) (1 mg/mL in PBS). Colonies can be counted and the IC50's can be determined.
row,SMILES,IC50 [nM]
1,Cc1nc(C)n(C[C@H]2CCCN(C(=O)[C@H]3CN([C@H]4c5ccc(Cl)cc5CCc5cc(Br)cnc54)CCN3C(=O)OC3CCCCC3)C2)c1C [Example 214],0.05 to 30
2,Cc1cn(CC[C@H]2CCCN2C(=O)[C@H]2CN(C3c4ccc(Cl)cc4CCc4cc(Br)cnc43)CCN2C(=O)OC2CCCCC2)cn1 (some centres unmarked) [Example 215],0.05 to 30
3,Cc1cn(CC[C@@H]2CCCN2C(=O)[C@H]2CN(C3c4ccc(Cl)cc4CCc4cc(Br)cnc43)CCN2C(=O)OC2CCCCC2)cn1 (some centres unmarked) [Example 216],0.05 to 30
4,Cc1cn(C[C@@H]2CCCN(C(=O)[C@H]3CN([C@@H]4c5ccc(Cl)cc5CCc5cc(Cl)cnc54)CCN3C(=O)OC(C)C)C2)cn1 [Example 231],0.05 to 30
5,Cc1cn(C[C@@H]2CCCN(C(=O)[C@H]3CN([C@H]4c5ccc(Cl)cc5CCc5cc(Cl)cnc54)CCN3C(=O)OC(C)C)C2)cn1 [Example 232],0.05 to 30
6,Cc1cn(CC2CCCN(C(=O)C3CN(C4c5ccc(Cl)cc5CCc5cc(Cl)cnc54)CCN3C(=O)OCC(C)(C)C)C2)cn1 (centres unmarked) [Example 233],0.05 to 30
7,Cc1cn(C[C@@H]2CCCN(C(=O)[C@H]3CN([C@H]4c5ccc(Cl)cc5CCc5cc(Cl)cnc54)CCN3C(=O)OCC(C)(C)C)C2)cn1 [Example 234],0.05 to 30

# Now from value to molecule:
row,IC50 [nM],SMILES
1,0.05 to 30,Cc1cn(C[C@@H]2CCCN(C(=O)[C@H]3CN([C@H]4c5ccc(Cl)cc5CCc5cc(Cl)cnc54)CCN3C(=O)NC(C)(C)C)C2)cn1 [Example 238]
2,0.05 to 30,Cc1cn(C[C@@H]2CCCN(C(=O)[C@H]3CN([C@@H]4c5ccc(Cl)cc5CCc5cc(Cl)cnc54)CCN3C(=O)C(C)(C)C)C2)cn1 [Example 239]
3,0.05 to 30,Cc1cn(C[C@@H]2CCCN(C(=O)[C@H]3CN([C@H]4c5ccc(Cl)cc5CCc5cc(Cl)cnc54)CCN3C(=O)C(C)(C)C)C2)cn1 [Example 240]
4,0.05 to 30,Cc1cn(C[C@H]2CCCN(C(=O)[C@H]3CN([C@@H]4c5ccc(Cl)cc5CCc5cc(Cl)cnc54)CCN3C(=O)OCC(C)(C)C)C2)cn1 [Example 245]
5,0.05 to 30,Cc1cn(C[C@@H]2CCCN(C(=O)[C@H]3CN([C@@H]4c5ccccc5CCc5cc(Cl)cnc54)CCN3C(=O)OCC(C)(C)C)C2)cn1 [Example 297]
6,0.05 to 30,Cc1cn(CC2CCCN(C(=O)C3CN(C4c5ccccc5CCc5cc(Cl)cnc54)CCN3C(=O)OCC(C)(C)C)C2)cn1 (centres unmarked) [Example 298]
7,0.05 to 30,Cc1cn(C[C@@H]2CCCN(C(=O)[C@H]3CN([C@@H]4c5ccccc5CCc5cc(Cl)cnc54)CCN3C(=O)OCC3CC3)C2)cn1 [Example 299]
8,0.05 to 30,Cc1cn(CC2CCCN(C(=O)C3CN(C4c5ccccc5CCc5cc(Cl)cnc54)CCN3C(=O)OCC3CC3)C2)cn1 (centres unmarked) [Example 300]
9,0.05 to 30,Cc1cn(C[C@@H]2CCCN(C(=O)[C@H]3CN([C@@H]4c5ccccc5CCc5cc(Cl)cnc54)CCN3C(=O)NC(C)(C)C)C2)cn1 [Example 301]
10,0.05 to 30,Cc1cn(C[C@@H]2CCCN(C(=O)[C@H]3CN([C@H]4c5ccccc5CCc5cc(Cl)cnc54)CCN3C(=O)NC(C)(C)C)C2)cn1 [Example 302]
11,0.05 to 30,Cc1cn(C[C@@H]2CCCN(C(=O)[C@H]3CN([C@@H]4c5ccccc5CCc5cc(Cl)cnc54)CCN3C(=O)C(C)(C)C)C2)cn1 [Example 303]
12,0.05 to 30,Cc1cn(C[C@H]2CCCN(C(=O)[C@H]3CN([C@H]4c5ccccc5CCc5cc(Cl)cnc54)CCN3C(=O)C(C)(C)C)C2)cn1 [Example 316]
13,0.05 to 30,Cc1cn(C[C@H]2CCCN(C(=O)[C@H]3CN([C@@H]4c5ccccc5CCc5cc(Cl)cnc54)CCN3C(=O)NC3CCCCC3)C2)cn1 [Example 317]
14,0.05 to 30,Cc1cn(C[C@H]2CCCN(C(=O)[C@H]3CN([C@H]4c5ccccc5CCc5cc(Cl)cnc54)CCN3C(=O)NC3CCCCC3)C2)cn1 [Example 318]
15,0.05 to 30,Cc1cn(CC2CCCN(C(=O)C3CN(C4c5ncccc5CCc5cccc(Cl)c54)CCN3C(=O)OC(C)(C)C)C2)cn1 (centres unmarked) [Example 394]
16,0.05 to 30,Cc1nccn1CC1CCCN(C(=O)C2CN(C3c4ncccc4CCc4cccc(Cl)c43)CCN2C(=O)OC(C)(C)C)C1 (centres unmarked) [Example 395]
17,0.05 to 30,CC1(Cn2ccnc2)CCCN(C(=O)[C@H]2CN([C@H]3c4ccc(Cl)cc4CCc4cccnc43)CCN2C(=O)OC2CCCCC2)C1 (some centres unmarked) [Example 415]
18,0.05 to 30,Cc1cn(C[C@@]2(C)CCCN(C(=O)[C@H]3CN([C@H]4c5ccc(Cl)cc5CCc5cccnc54)CCN3C(=O)OC3CCCCC3)C2)cn1 [Example 416]
19,0.05 to 30,Cc1cn(C[C@]2(C)CCCN(C(=O)[C@H]3CN([C@H]4c5ccc(Cl)cc5CCc5cccnc54)CCN3C(=O)OC3CCCCC3)C2)cn1 [Example 417]
20,0.05 to 30,CC1CCC(Cn2ccnc2)CN1C(=O)[C@H]1CN([C@H]2c3ccc(Cl)cc3CCc3cccnc32)CCN1C(=O)OC1CCCCC1 (some centres unmarked) [Example 424]
